The values that follow come from patent US9718760B2, “Plasminogen activator inhibitor-1 inhibitors and methods of use thereof” (THE REGENTS OF THE UNIVERSITY OF MICHIGAN, priority 2012, dated 2017).

The target of the test is recombinant active human PAI-1 (Homo sapiens (Human), UniProt P05121). The test is described as follows: Fluorometric PAI-1/uPA IC50 plate assay at pH 7.4. Type of test: biochemical. As for the experimental part: To determine the efficacy of various synthesized compounds as PAI-1 inhibitors, a fluorometric plate assay was carried out to measure the half maximal inhibitory concentration (IC50) of these compounds on recombinant active human PAI-1 in vitro. An IC50 is a measure of the effectiveness of a compound in inhibiting biological or biochemical function. Stated another way, IC50 represents the concentration of a drug that is required for 50% inhibition in vitro.
PAI-1 inhibitor compounds were dissolved in DMSO to a final concentration of (10-50 mM), depending upon solubility. Compounds were then diluted in physiologic buffer (40 mM HEPES, 100 mM NaCl, 0.05% Tween-20, pH7.4) containing 10% DMSO and a dilution series (from 0 to 1000 uM depending on solubility) was prepared. 80 μL of compound was added per well to a 96-well black, opaque microplate in duplicate. 10 μL of 20 nM Recombinant active human PAI-1 (Molecular Innovations) in physiologic buffer (40 mM HEPES, 100 mM NaCl, 0.05% Tween-20, 10% DMSO, pH 7.4), or […] physiologic buffer with 10% human plasma, was added and the mixture was agitated for 15 minutes at room temperature. 10 μL of 25 nM uPA (Rheotromb®) was added to each reaction well and the plate was agitated for an additional 30 minutes at room temperature. Tripeptide aminomethylcoumarin Gly-Gly-Arg-AMC (Calbiochem) fluorogenic substrate (100 μL of 100 μM) was then added and residual uPA activity was determined based upon cleavage of this substrate. The rate of AMC release by uPA (fluorescence) was measured at an excitation wavelength of 370 nm and an emission wavelength of 440 nm. Controls included PAI-1 and uPA in the absence of compound and uPA alone. Percent PAI-1 inhibition was calculated using the following formula: [(uPA alone-uPA/PAI-1+ compound)/(uPA alone-PAI-1/uPA)]*100%. The IC50 was calculated using Graphit (IC50 0-100%).

The mark [1] stands for this setting: physiologic buffer (40 mM HEPES, 100 mM NaCl, 0.05% Tween-20, 10% DMSO), read-out: PAI-1/uPA IC50 in buffer.
Where [2] appears, read: physiologic buffer with 1.5% BSA (15 mg/mL), read-out: PAI-1/uPA IC50 in 1.5% BSA buffer.
The mark [3] stands for this setting: physiologic buffer with 10% human plasma, read-out: PAI-1/uPA IC50 in 10% plasma buffer.

The structures appear in SMILES notation. Where “and” joins values, the source holds several entries; their conditions need not be identical. Equal entries are not always repeated. Where two headings read alike, the source gives them in different places.

Chain of recombinant active human PAI-1 (P05121 24-402): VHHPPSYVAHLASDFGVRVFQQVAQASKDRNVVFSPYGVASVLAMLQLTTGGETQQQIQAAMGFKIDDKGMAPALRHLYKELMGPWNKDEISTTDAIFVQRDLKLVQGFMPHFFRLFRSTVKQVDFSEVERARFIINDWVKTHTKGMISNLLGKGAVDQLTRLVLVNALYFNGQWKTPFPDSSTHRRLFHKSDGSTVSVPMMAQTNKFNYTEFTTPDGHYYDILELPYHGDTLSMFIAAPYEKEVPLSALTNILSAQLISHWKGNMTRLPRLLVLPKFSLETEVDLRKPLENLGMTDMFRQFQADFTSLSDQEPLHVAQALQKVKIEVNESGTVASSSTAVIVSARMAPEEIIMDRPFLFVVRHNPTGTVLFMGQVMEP

Regarding `COc1ccc(-c2nc(-c3ccc4c(c3)CC(=O)N4)cs2)cc1OC` [C227, 5-(2-(3,4-dimethoxyphenyl)thiazol-4-yl)indolin-2-one], the IC50 under setting [1] came to 205 µM.

Take `O=C(Cc1ccc(O)c(O)c1)NCc1ccc(Cl)c(C(F)(F)F)c1` [C347]: the IC50 under setting [1] amounted to 888 µM, the IC50 under setting [2] amounted to 309 µM and the IC50 under setting [3] was 293 µM.

With `Cc1ccc(CNC(=O)C(=O)NN)cc1` [C362], the IC50 reads like this: under setting [1], 533 µM; under setting [2], 353 µM; under setting [3], 229 µM.

`O=C(NCc1ccc(C(F)(F)F)cc1)c1ccc(O)c(O)c1` [C363]: the IC50 is 199 µM under setting [1], 751 µM under setting [2] and 309 µM under setting [3].

As to `COc1ccc(CNC(=O)C(=O)NN)c(OC)c1` [C281], the IC50 under setting [1] stood at 2290 µM.

In the case of `CCCCCCNC(=O)C(=O)NN` [C240], the IC50 is, setting by setting: under setting [1], 3770 µM and 3910 µM; under setting [2], 2220 µM and 1970 µM; under setting [3], 1210 µM.

Regarding `CONC(=O)C(=O)NCc1ccc(Cl)c(C(F)(F)F)c1` [C320, N-(4-chloro-3-(trifluoromethyl)benzyl)-N′-methoxyoxalamide], the IC50 by setting is: under setting [1], 329 µM; under setting [2], 513 µM; under setting [3], 693 µM.

`O=C(NCc1ccc(Cl)c(C(F)(F)F)c1)C(=O)NNS(=O)(=O)c1ccccc1` [C334]: under setting [1], the IC50 was found to be 189 µM.

Turning to `NNC(=O)C(=O)NCc1cc(F)c(F)c(F)c1` [C304], the IC50 was found to be 162 µM under setting [1], 90 µM under setting [2] and 74 µM under setting [3].

For `COc1cc(CNC(=O)C(=O)NN)cc(OC)c1` [C322], the IC50 under setting [1] stood at 4320 µM.

In the case of `O=C(CCc1ccc(O)c(O)c1)NCc1ccc(Cl)cc1` [C359], the IC50 by setting is: under setting [1], 3370 µM; under setting [2], 2080 µM; under setting [3], 974 µM.

Consider `O=C1Cc2cc(-c3csc(-c4ccc(O)c(O)c4)n3)ccc2N1` [C228], for which the IC50 under setting [1] came to 14.8 µM.

As for `NNC(=O)CCC(=O)NCc1cccc(C(F)(F)F)c1` [C289], the IC50 is 2730 µM under setting [1], 1100 µM under setting [2] and 733 µM under setting [3].

As to `O=C(NCc1ccc(Cl)c(C(F)(F)F)c1)c1ccc(O)c(O)c1` [C348], the IC50 is 99 µM under setting [1], 454 µM under setting [2] and 240 µM under setting [3].

On to `O=C(CCc1ccc(O)c(O)c1)NCc1cccc(C(F)(F)F)c1` [C344], for which the IC50 under setting [1] came out at 1000 µM, the IC50 under setting [2] was 830 µM and the IC50 under setting [3] stood at 866 µM.

Consider `Cc1cc(Cl)ccc1CNC(=O)C(=O)NO` [C300], for which the IC50 under setting [1] turned out to be 5490 µM.

For the compound `NNC(=O)C(=O)NCc1ccc(Br)cc1` [C260], the IC50 under setting [1] was 147 µM and 187 µM; the IC50 under setting [3] was found to be 525 µM.

`Cc1cc(Cl)ccc1CNC(=O)C(=O)NN` [C282]: the IC50 under setting [1] is 225 µM and 219 µM; the IC50 under setting [2] was 163 µM and 154 µM; the IC50 under setting [3] worked out at 121 µM.

Turning to `COC(=O)CCC(=O)NCc1ccc(Cl)c(C(F)(F)F)c1` [C277], the IC50 is, setting by setting: under setting [1], 751 µM and 719 µM; under setting [2], 165 µM and 158 µM; under setting [3], 148 µM and 142 µM.

Turning to `CON(C)C(=O)C(=O)NCc1ccc(Cl)c(C(F)(F)F)c1` [C328], the IC50 is, setting by setting: under setting [1], 713 µM; under setting [2], 345 µM; under setting [3], 318 µM.

`O=C(NCc1cccc(C(F)(F)F)c1)c1ccc(O)c(O)c1` [C364]: the IC50 stood at 475 µM under setting [1], 898 µM under setting [2] and 533 µM under setting [3].

In the case of `O=C(CCc1ccc(O)c(O)c1)NCc1cc(F)c(F)c(F)c1` [C356], the IC50 came to 1100 µM under setting [1], 1240 µM under setting [2] and 544 µM under setting [3].

Take `CCOC(=O)C(=O)NCc1ccc(Cl)c(C(F)(F)F)c1` [C256, ethyl 2-((4-chloro-3-(trifluoromethyl)benzyl)amino)-2-oxoacetate]: the IC50 is, setting by setting: under setting [1], 1040 µM and 1350 µM; under setting [2], 204 µM and 235 µM; under setting [3], 214 µM.

In the case of `O=C1Cc2cc(C(=O)CNCCNCC(=O)c3ccc4c(c3)CC(=O)N4)ccc2N1` [C225, 5,5′-(2,2′-(ethane-1,2-diylbis(azanediyl))bis(acetyl))bis(indolin-2-one)], the IC50 under setting [1] was found to be 163 µM.

Take `N#Cc1ccc(CNC(=O)C(=O)NN)cc1` [C336]: the IC50 is, setting by setting: under setting [1], 5470 µM; under setting [2], 892 µM; under setting [3], 851 µM.

`NNC(=O)C(=O)NCc1ccccc1F` [C263]: the IC50 came out at 2840 µM under setting [1], 1680 µM under setting [2] and 1360 µM under setting [3].

As for `NNC(=O)C(=O)NCc1cc(F)cc(F)c1` [C340], the IC50 is, setting by setting: under setting [1], 337 µM; under setting [2], 249 µM; under setting [3], 272 µM.

On to `CCCCCNC(=O)C(=O)NN` [C241], for which the IC50 under setting [1] worked out at 1930 µM.

As for `NNC(=O)C(=O)NCc1ccc(Cl)c(C(F)(F)F)c1` [C251], the IC50 is, setting by setting: under setting [1], 68.6 µM and 76 µM; under setting [2], 110 µM and 123 µM; under setting [3], 108 µM.

As to `NNC(=O)C(=O)NCc1cccc(OC(F)(F)F)c1` [C268], the IC50 was 135 µM and 134 µM under setting [1]; 65 µM under setting [2]; 77 µM under setting [3].

With `O=C(/C=C/c1ccc(O)c(O)c1)NCc1ccc(Cl)c(C(F)(F)F)c1` [C346], under setting [1], the IC50 came out at 353 µM.

With `CCOC(=O)C(=O)NCc1ccc(Br)cc1` [C259], the IC50 by setting is: under setting [1], 2890 µM and 3140 µM; under setting [2], 625 µM and 760 µM; under setting [3], 526 µM.

In the case of `NNC(=O)CCC(=O)NCc1ccc(F)c(C(F)(F)F)c1` [C287], the IC50 is, setting by setting: under setting [1], 1190 µM; under setting [2], 363 µM; under setting [3], 304 µM.

In the case of `O=C(NCc1ccc(Cl)c(C(F)(F)F)c1)c1n[nH]c(=O)o1` [C285, N-(4-chloro-3-(trifluoromethyl)benzyl)-5-oxo-4,5-dihydro-1,3,4-oxadiazole-2-carboxamide], the IC50 is 422 µM and 388 µM under setting [1]; 265 µM under setting [2]; 306 µM under setting [3].

With `Cc1cc(CNC(=O)C(=O)NN)ccc1F` [C262], the IC50 is 170 µM and 187 µM under setting [1]; 63 µM and 84 µM under setting [2]; 86 µM under setting [3].

Regarding `NNC(=O)C(=O)NCc1ccc(OC(F)(F)F)cc1` [C255], the IC50 under setting [1] was 2060 µM and 1780 µM; the IC50 under setting [2] was 221 µM and 292 µM; the IC50 under setting [3] turned out to be 279 µM.

With `O=C(NCc1ccc(Cl)cc1)c1ccc(O)c(O)c1` [C361], the IC50 is, setting by setting: under setting [1], 232 µM; under setting [2], 2000 µM; under setting [3], 851 µM.

Turning to `COc1cccc(CNC(=O)C(=O)NN)c1` [C295], the IC50 reads like this: under setting [1], 1340 µM; under setting [2], 776 µM; under setting [3], 736 µM.

Consider `NNC(=O)C(=O)NCc1ccc(C(F)(F)F)cc1` [C296], for which the IC50 worked out at 112 µM under setting [1], 69 µM under setting [2] and 64 µM under setting [3].

With `CC(C)=NNC(=O)C(=O)NCc1cc(F)cc(F)c1` [C313], the IC50 runs as follows: under setting [1], 1200 µM; under setting [2], 532 µM; under setting [3], 490 µM.

On to `O=C(NO)C(=O)NCc1ccc(Cl)c(C(F)(F)F)c1` [C280], for which the IC50 is 207 µM and 203 µM under setting [1]; 166 µM and 159 µM under setting [2]; 168 µM under setting [3].

For the compound `Cc1cc(Cl)ccc1CNC(=O)c1n[nH]c(=O)o1` [C299], the IC50 reads like this: under setting [1], 238 µM; under setting [2], 739 µM; under setting [3], 628 µM.

With `CCOC(=O)C(=O)NCc1cccc(Cl)c1` [C265], the IC50 under setting [1] worked out at 4020 µM.

Regarding `CCOC(=O)C(=O)NCc1cccc(C(F)(F)F)c1` [C267], under setting [1], the IC50 amounted to 3790 µM.

Turning to `O=C(O)C(=O)NCc1ccc(Cl)c(C(F)(F)F)c1` [C309, 2-((4-chloro-3-(trifluoromethyl)benzyl)amino)-2-oxoacetic acid], under setting [1], the IC50 is 1200 µM.

Turning to `Cc1oncc1C(=O)NCc1ccc(Cl)c(C(F)(F)F)c1` [C279], the IC50 was 539 µM and 593 µM under setting [1]; 545 µM and 504 µM under setting [2]; 680 µM under setting [3].

As for `O=C1Cc2cc(S(=O)(=O)NCCc3ccccc3)ccc2N1` [C229, 2-oxo-N-phenethylindoline-5-sulfonamide], under setting [1], the IC50 came to 1290 µM.

Regarding `NNC(=O)C(=O)NCc1cccc(Cl)c1` [C266], the IC50 was 568 µM and 549 µM under setting [1]; 126 µM under setting [2]; 219 µM under setting [3].

As to `NNC(=O)C(=O)NCc1cc(C(F)(F)F)cc(C(F)(F)F)c1` [C339], the IC50 reads like this: under setting [1], 282 µM; under setting [2], 247 µM; under setting [3], 303 µM.

Turning to `COC(=O)CCC(=O)NCc1ccc(F)c(C(F)(F)F)c1` [C276], the IC50 is, setting by setting: under setting [1], 1440 µM; under setting [2], 428 µM; under setting [3], 476 µM.

Take `O=C(NCc1ccc(Br)cc1)c1ccc(O)c(O)c1` [C360]: the IC50 reads like this: under setting [1], 164 µM; under setting [2], 1670 µM; under setting [3], 771 µM.
